Structures can show the parent of a compound that is named as a salt.
Target: T1, soluble human BACE (Homo sapiens, UniProt P56817)
T1 construct: cells secreting human recombinant soluble BACE; made in house; conditioned medium
Assay: BACE activity Cell Free Assay (ELISA of cleaved synthetic APP substrate)
Format: biochemical
Settings: not given
Procedure: A synthetic APP substrate that can be cleaved by beta˜secretase and having N-terminal biotin is used to assay beta-secretase activity in the presence or absence of the inhibitory compounds. […] The substrate and test compounds are added to 384 well polypropylene plates. The reaction is initiated by the addition of soluble BACE enzyme to a final volume of 12.5 μL per well. The final assay conditions are: 0.001˜300 μM compound inhibitor, 0.05M sodium acetate (pH 4.5), 3 μM substrate, soluble human BACE, and 2% DMSO. Concentrated conditioned media from cells secreting human recombinant soluble BACE was titrated to provide a source of BACE enzyme. The cell media can be used as either a crude BACE prep or BACE can be purified using any number of techniques, including immobilized BACE inhibitor purification columns. The assay mixture is incubated for 1 hour at 37° C., and the reaction is quenched by the addition of an equal volume of 0.1M Tris, pH 8. Half of the quenched mix is incubated on clear streptavidin coated 384 well polystyrene plates for 1 hour. An ELISA is then performed using an in˜house antibody that specifically recognizes the new C˜terminus created after cleavage by BACE. […] (These polyclonal antibodies were raised in rabbits by immunizing with antigen comprised of six amino acid residues present at the carboxy terminus of the wild-type soluble APPbeta sequence (NH2-ISEVKM-COOH) or seven amino acid residues present at the carboxy terminus of the Swedish mutation at the beta cleavage site (NH2-EISEVNL˜COOH) conjugated to keyhole limpet hemacyanin by methods known to those skilled in the art.) A secondary anti˜species Horseradish Peroxidase (HRP) conjugated antibody is then utilized. The readout, following assay development with TMB substrate and quenching with 0.09M sulfuric acid, is absorbance at 450 nm.

T1 sequence (P56817 46-457 limits assumed): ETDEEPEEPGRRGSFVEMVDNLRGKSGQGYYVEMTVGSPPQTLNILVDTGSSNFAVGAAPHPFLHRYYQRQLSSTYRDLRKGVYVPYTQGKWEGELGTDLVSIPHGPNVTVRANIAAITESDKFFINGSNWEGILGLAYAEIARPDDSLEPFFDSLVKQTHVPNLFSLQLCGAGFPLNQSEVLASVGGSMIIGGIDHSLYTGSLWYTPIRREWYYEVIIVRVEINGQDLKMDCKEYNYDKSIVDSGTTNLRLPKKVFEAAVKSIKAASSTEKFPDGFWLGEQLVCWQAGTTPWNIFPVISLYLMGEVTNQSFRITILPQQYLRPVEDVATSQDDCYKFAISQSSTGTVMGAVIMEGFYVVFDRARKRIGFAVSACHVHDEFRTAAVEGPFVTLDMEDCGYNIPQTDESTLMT

SMILES	IC50 [µM]
Cc1ccncc1-c1cccc(CN2CCC3(CCC(=O)N3c3cccc(F)c3)CC2C)c1 (racemic) [Example 51, Racemic (5R,7S),(5S,7R)-1-(3-fluorophenyl)-7-methyl-8-[3-(4-methylpyridin-3-yl)benzyl]-1,8-diazaspiro[4.5]decan-2-one]	10 to 100
CC(C)Oc1cc(CN2CC[C@]3(C=CC(=O)N3c3cccc(F)c3)C[C@@H]2C)ccc1O [Example 87, (5R7S)-1-(3-fluorophenyl)-8-(4-hydroxy-3-isopropoxybenzyl)-7-methyl-1,8-diazaspiro[4,5]dec-3-en-2-one hydrochloride]	0.001 to 1
COc1ccc(-c2csc(CN3CCC4(C=CC(=O)N4c4cccc(F)c4)CC3C)n2)cc1 (racemic) [Example 73, Racemic (5R,7S),(5S,7R)-1-(3-fluorophenyl)-8-{[4-(4-methoxyphenyl)-1,3-thiazol-2-yl]methyl}-7-methyl-1,8-diazaspiro[4.5]dec-3-en-2-one]	10 to 100
CC(C)n1ncc2ccc(CN3CC[C@]4(C=CC(=O)N4c4cnccn4)C[C@@H]3C)cc21 [#130, (5R,7S)-8-[(1-isopropyl-1H-indazol-6-yl)methyl]-7-methyl-1-pyrazin-2-yl-1,8-diazaspiro[4.5]dec-3-en-2-one]	10 to 100
COc1ccc(F)c(CN2CCC3(CCC(=O)N3c3cccc(F)c3)CC2C)c1 (racemic) [Example 43, Racemic (5R,7S),(5S,7R)-8-(2-fluoro-5-methoxybenzyl)-1-(3-fluorophenyl)-7-methyl-1,8-diazaspiro[4.5]decan-2-one]	100 to 300
CC1CC2(CCC(=O)N2c2cccc(F)c2)CCN1Cc1c[nH]c2ccc(C#N)cc12 (racemic) [Example 76, Racemic 3-{[(5R,7S),(5S,7R)-1-(3-fluorophenyl)-7-methyl-2-oxo-1,8-diazaspiro[4.5]dec-8-yl]methyl}-1H-indole-5-carbonitrile]	100 to 300
COc1cccc(CN2CCC3(C=CC(=O)N3c3cccc(F)c3)CC2C)c1 (racemic) [Example 8, Racemic (5R,7S),(5S,7R)-1-(3-fluorophenyl)-8-(3-methoxybenzyl)-7-methyl-1,8-diazaspiro[4.5]dec-3-en-2-one]	100 to 300
C[C@H]1C[C@@]2(C=CC(=O)N2c2cccc(F)c2)CCN1Cc1scnc1CC1CC1 [#210]	0.001 to 1
CC(C)Oc1cccc(CN2CC[C@@]3(C[C@@H]2C)CC(F)(F)C(=O)N3c2cccc(F)c2)c1 (racemic) [Example 91, Racemic (5R,7S)(5S,7R)˜3,3˜difluoro˜1˜(3˜fluorophenyl)˜8˜(3˜isopropoxybenzyl)˜7˜methyl˜1,8˜diazaspiro[4.5]decan˜2˜one, formate salt]	10 to 100
COc1cc(CN2CCC3(CCC(=O)N3c3cccc(F)c3)CC2C)ccc1O (racemic) [Example 42, Racemic (5R,7S),(5S,7R)-1-(3-fluorophenyl)-8-(4-hydroxy-3-methoxybenzyl)-7-methyl-1,8-diazaspiro[4.5]decan-2-one]	10 to 100
Cc1ccc(Oc2cccc(CN3CCC4(CCC(=O)N4c4cccc(F)c4)CC3C)c2)cc1 (racemic) [Example 34, Racemic (5R,7S),(5S,7R)-1-(3-fluorophenyl)-7-methyl-8-[3-(4-methylphenoxy)benzyl]-1,8-diazaspiro[4.5]decan-2-one]	10 to 100
C[C@H]1C[C@@]2(C=CC(=O)N2c2cccc(F)c2)CCN1Cc1ccc(O)c(Cl)c1 [#201]	1 to 10
CC1CC2(CCC(=O)N2c2cccc(F)c2)CCN1Cc1ccnn1CC(F)(F)F (racemic) [Example 77, Racemic (5R,7S),(5S,7R)-1-(3-fluorophenyl)-7-methyl-8-{[1-(2,2,2-trifluoroethyl)-1H-pyrazol-5-yl]methyl}-1,8-diazaspiro[4.5]decan-2-one]	100 to 300
CC(C)Oc1cccc(CN2CC[C@]3(C=CC(=O)N3c3cncc(C#N)c3)C[C@@H]2C)c1 [#120]	10 to 100
Cc1ccc(N2C(=O)C=C[C@]23CCN(Cc2cccc(OC(C)C)c2)[C@@H](C)C3)cn1 [#109]	10 to 100
Cc1cccc(N2C(=O)C=C[C@]23CCN(Cc2ccc4cnn(C(C)C)c4c2)[C@@H](C)C3)n1 [#139, (5R,7S)-8-[(1-isopropyl-1H-indazol-6-yl)methyl]-7-methyl-1-(6-methylpyridin-2-yl)-1,8-diazaspiro[4.5]dec-3-en-2-one]	100 to 300

SMILES	IC50 [µM]
CCOc1cccc(CN2CCC3(CCC(=O)N3c3cccc(F)c3)CC2C)c1 (racemic) [Example 33, Racemic (5R,7S),(5S,7R)-8-(3-ethoxybenzyl)-1-(3-fluorophenyl)-7-methyl-1,8-diazaspiro[4.5]decan-2-one]	100 to 300
CC1CC2(C=CC(=O)N2c2cccc(F)c2)CCN1Cc1cccc(S(=O)(=O)N2CCCC2)c1 (racemic) [Example 4, Racemic (5R,7S),(5S,7R)-1-(3-fluorophenyl)-7-methyl-8-[3-(pyrrolidin-1-ylsulfonyl)benzyl]-1,8-diazaspiro[4.5]dec-3-en-2-one]	10 to 100
CC1=C[C@]2(CCN(Cc3ccc(O)c(OC(C)C)c3)[C@@H](C)C2)N(c2cccc(F)c2)C1=O [Example @98, (5R,7S)-1-(3-Fluorophenyl)-8-(4-hydroxy-3-isopropoxybenzyl)-3,7-dimethyl-1,8-diazaspiro[4.5]dec-3-en-2-one, hydrochloride salt]	0.001 to 1
COc1cc(F)cc(N2C(=O)C=C[C@]23CCN(Cc2cccc(OC(C)C)c2)[C@@H](C)C3)c1 [#112]	1 to 10
CC1CC2(CCC(=O)N2c2cccc(F)c2)CCN1Cc1ccc2[nH]ccc2c1 (racemic) [Example 40, Racemic (5R,7S),(5S,7R)-1-(3-fluorophenyl)-8-(1H-indol-5-ylmethyl)-7-methyl-1,8-diazaspiro[4.5]decan-2-one]	100 to 300
CCOc1cccc(CN2CCC3(C=CC(=O)N3c3cccc(F)c3)CC2C)c1 (racemic) [Example 1, Racemic (5R,7S),(5S,7R)-8-(3-ethoxybenzyl)-1-(3-fluorophenyl)-7-methyl-1,8-diazaspiro[4.5]dec-3-en-2-one]	10 to 100
CC(C)Oc1cccc(CN2CC[C@]3(C=CC(=O)N3c3ccncc3)C[C@@H]2C)c1 [#102]	100 to 300
CC(C)Oc1cccc(CN2CC[C@]3(CCC(=O)N3c3cccc(F)c3)C[C@@H]2C)c1 (racemic) [Example 45, Racemic (5R,7S),(5S,7R)-1-(3-fluorophenyl)-8-(3-isopropoxybenzyl)-7-methyl-1,8-diazaspiro[4.5]decan-2-one]	10 to 100
CC1CC2(CCC(=O)N2c2cccc(F)c2)CCN1Cc1ccc(O)c(Cl)c1 (racemic) [Example 44, Racemic (5R,7S),(5S,7R)-8-(3-chloro-4-hydroxybenzyl)-1-(3-fluorophenyl)-7-methyl-1,8-diazaspiro[4.5]decan-2-one]	10 to 100
CCCOc1cccc(CN2CCC3(CCC(=O)N3c3cccc(F)c3)CC2C)c1 (racemic) [Example 46, Racemic (5R,7S),(5S,7R)-1-(3-fluorophenyl)-7-methyl-8-(3-propoxybenzyl)-1,8-diazaspiro[4.5]decan-2-one]	10 to 100
CC1CC2(C=CC(=O)N2c2cccc(F)c2)CCN1Cc1n[nH]c2ccc(Cl)cc12 (racemic) [Example 65, Racemic (5R,7S),(5S,7R)-8-[(5-chloro-1H-indazol-3-yl)methyl]-1-(3-fluorophenyl)-7-methyl-1,8-diazaspiro[4.5]dec-3-en-2-one]	10 to 100
Cc1cccc(N2C(=O)C=C[C@]23CCN(Cc2scnc2CC2CCC2)[C@@H](C)C3)n1 [#137, (5R,7S)-8-{[4-(cyclobutylmethyl)-1,3-thiazol-5-yl]methyl}-7-methyl-1-(6-methylpyridin-2-yl)-1,8-diazaspiro[4.5]dec-3-en-2-one]	1 to 10
CCCn1nccc1CN1CC[C@]2(C=CC(=O)N2c2cccc(C)n2)C[C@@H]1C [#138, (5R,7S)-7-methyl-1-(6-methylpyridin-2-yl)-8-[(1-propyl-1H-pyrazol-5-yl)methyl]-1,8-diazaspiro[4.5]dec-3-en-2-one]	10 to 100
C[C@H]1C[C@@]2(C=CC(=O)N2c2cnccn2)CCN1Cc1scnc1CC1CCC1 [#131, (5R,7S)-8-([4-(cyclobutylmethyl)-1,3-thiazol-5-yl]methyl)-7-methyl-1-pyrazin-2-yl-1,8-diazaspiro[4.5]dec-3-en-2-one]	1 to 10
CCn1cc(N2C(=O)C=C[C@]23CCN(Cc2cccc(OC(C)C)c2)[C@@H](C)C3)cn1 [#123]	100 to 300
CC1CC2(CCC(=O)N2c2cccc(F)c2)CCN1Cc1ccc(O)cc1 (racemic) [Example 37, Racemic (5R,7S),(5S,7R)-1-(3-fluorophenyl)-8-(4-hydroxybenzyl)-7-methyl-1,8-diazaspiro[4.5]decan-2-one]	10 to 100

Same assay, conditions: Table 6; cell free, soluble human BACE, pH 4.5, 3 μM substrate; read-out: BACE Activity (Cell Free Assay IC50)

SMILES	IC50 [µM]
CC(C)Oc1cccc(CN2CC[C@]3(C=CC(=O)N3C3CC3)C[C@@H]2C)c1 [Example @95, (5R,7S)-1-Cyclopropyl-8-(3-isopropoxybenzyl)-7-methyl-1,8-diazaspiro[4.5]dec-3-en-2˜one, trifluoroacetate salt]	100 to 300
